This note sets out measurements from patent US7101878B1 (Agouron Pharmaceuticals, Inc., priority 1998, dated 2006).

In one test the target is T1, human GnRH receptor (Homo sapiens, UniProt P30968).
T1 construct: expressed in transfected cells; host or cells: HEK 293 (hGnRH-R/293, from Dr. Stuart Sealfon)
T1 sequence (P30968 1-328): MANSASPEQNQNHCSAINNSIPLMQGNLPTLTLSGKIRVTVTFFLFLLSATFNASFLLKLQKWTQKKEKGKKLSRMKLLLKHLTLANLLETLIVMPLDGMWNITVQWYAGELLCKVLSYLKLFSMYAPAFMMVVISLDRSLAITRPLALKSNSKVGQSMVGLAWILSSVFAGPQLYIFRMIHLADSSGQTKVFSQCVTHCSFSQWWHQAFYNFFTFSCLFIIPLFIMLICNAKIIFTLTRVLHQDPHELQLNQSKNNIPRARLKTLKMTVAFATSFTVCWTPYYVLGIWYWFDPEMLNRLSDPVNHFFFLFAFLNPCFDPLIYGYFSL
The test is described as follows: Radioligand binding, 125I-GnRH-A displacement, membranes of HEK 293 cells with human GnRH receptor. The note with it: 1 h, substrate remaining; 10 uM compound; closer to zero = closer to 100% inhibition; read-out: S%R 10 uM hGnRHR. Put shortly:
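After filtration and PBS washes, bound radioactivity was counted by scintillation and IC50 derived. Identical conditions applied for non-human receptors.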
For the compound `Cc1cc2c(cc1Cc1ccc(C(=O)Nc3cccnc3)o1)C(C)(C)CCC2(C)C` [Compound 320], the remaining activity at 10 µM came to 9%.

For the compound `CCN(CC)CCNC(=O)c1ccc(NC(=O)c2ccc(Cc3cc4c(cc3C)C(C)(C)CCC4(C)C)o2)cc1` [Compound 321], the remaining activity at 10 µM came to 55%.

With `Cc1cc2c(cc1Cc1ccc(C(=O)Nc3cccc(CO)c3)o1)C(C)(C)CCC2(C)C` [Compound 322], the remaining activity at 10 µM turned out to be 4%.

With `Cc1cc2c(cc1Cc1ccc(C(=O)Nc3ccc(CCO)cc3)o1)C(C)(C)CCC2(C)C` [Compound 323], the remaining activity at 10 µM was determined as 1%.

In the case of `Cc1cc2c(cc1Cc1ccc(C(=O)Nc3nc[nH]n3)o1)C(C)(C)CCC2(C)C` [Compound 324], the remaining activity at 10 µM was 27%.

As for `COc1ccc(NC(=O)c2ccc(Cc3cc4c(cc3C)C(C)(C)CCC4(C)C)o2)cn1` [Compound 325], the remaining activity at 10 µM amounted to 3%.

With `Cc1ccc(-n2nc(C)cc2NC(=O)c2ccc(Cc3cc4c(cc3C)C(C)(C)CCC4(C)C)o2)cc1` [Compound 326], the remaining activity at 10 µM was 51%.

`Cc1cc2c(cc1Cc1ccc(C(=O)Nc3ccccc3CCO)o1)C(C)(C)CCC2(C)C` [Compound 327]: the remaining activity at 10 µM is 0%.

Consider `Cc1cc(NC(=O)c2ccc(Cc3cc4c(cc3C)C(C)(C)CCC4(C)C)o2)n(-c2ccccc2)n1` [Compound 328], for which the remaining activity at 10 µM amounted to 33%.

For `CC1=CC(NC(=O)c2ccc(Cc3cc4c(cc3C)C(C)(C)CCC4(C)C)o2)=NC1c1ccccc1` (centres unmarked) [Compound 329], the remaining activity at 10 µM worked out at 31%.

On to `COc1ccc(OC)c(NC(=O)c2ccc(Cc3cc4c(cc3C)C(C)(C)CCC4(C)C)o2)c1` [Compound 330], for which the remaining activity at 10 µM was found to be 10%.

With `Cc1cnc(NC(=O)c2ccc(Cc3cc4c(cc3C)C(C)(C)CCC4(C)C)o2)s1` [Compound 331], the remaining activity at 10 µM amounted to 49%.

In the case of `COc1ccc(NC(=O)c2ccc(Cc3cc4c(cc3C)C(C)(C)CCC4(C)C)o2)c(OC)c1` [Compound 332], the remaining activity at 10 µM amounted to 1%.

Turning to `Cc1cc2c(cc1Cc1ccc(C(=O)Nc3ccccc3CO)o1)C(C)(C)CCC2(C)C` [Compound 333], the remaining activity at 10 µM was 28%.

On to `Cc1cc2c(cc1Cc1ccc(C(=O)Nc3nccs3)o1)C(C)(C)CCC2(C)C` [Compound 334], for which the remaining activity at 10 µM was determined as 34%.

Consider `Cc1cc2c(cc1Cc1ccc(C(=O)Nc3ccc(N(C)C)cc3)o1)C(C)(C)CCC2(C)C` [Compound 335], for which the remaining activity at 10 µM came to 2%.

For the compound `Cc1cc2c(cc1Cc1ccc(C(=O)Nc3nnc(C4CC4)s3)o1)C(C)(C)CCC2(C)C` [Compound 336], the remaining activity at 10 µM turned out to be 57%.

For the compound `COc1cccc(NC(=O)c2ccc(Cc3cc4c(cc3C)C(C)(C)CCC4(C)C)o2)c1` [Compound 337], the remaining activity at 10 µM was found to be 6%.

For the compound `CCOc1ccc(NC(=O)c2ccc(Cc3cc4c(cc3C)C(C)(C)CCC4(C)C)o2)cc1` [Compound 338], the remaining activity at 10 µM amounted to 26%.

Take `Cc1cc2c(cc1Cc1ccc(C(=O)Nc3ccc(CO)cc3)o1)C(C)(C)CCC2(C)C` [Compound 339]: the remaining activity at 10 µM worked out at 17%.

Turning to `Cc1cc2c(cc1Cc1ccc(C(=O)Nc3ccc(O)cc3)o1)C(C)(C)CCC2(C)C` [Compound 340], the remaining activity at 10 µM was determined as 28%.

For the compound `Cc1cc2c(cc1Cc1ccc(C(=O)Nc3ccc(O)c4ncccc34)o1)C(C)(C)CCC2(C)C` [Compound 341], the remaining activity at 10 µM was determined as 20%.

`Cc1cc2c(cc1Cc1ccc(C(=O)Nc3ccccc3O)o1)C(C)(C)CCC2(C)C` [Compound 342]: the remaining activity at 10 µM was 45%.

As to `COc1cc(C#N)c(NC(=O)c2ccc(Cc3cc4c(cc3C)C(C)(C)CCC4(C)C)o2)cc1OC` [Compound 343], the remaining activity at 10 µM came to 33%.

As for `Cc1cc2c(cc1Cc1ccc(C(=O)Nc3ccccc3C(=O)NCC(C)(C)CN(C)C)o1)C(C)(C)CCC2(C)C` [Compound 344], the remaining activity at 10 µM stood at 57%.

Regarding `Cc1cc2c(cc1Cc1ccc(C(=O)Nc3cccc(O)c3)o1)C(C)(C)CCC2(C)C` [Compound 345], the remaining activity at 10 µM came out at 40%.

As for `Cc1cc2c(cc1Cc1ccc(C(=O)Nc3cccc4ncccc34)o1)C(C)(C)CCC2(C)C` [Compound 346], the remaining activity at 10 µM is -14%.

Regarding `Cc1cc2c(cc1Cc1ccc(C(=O)Nc3ccc(CC#N)cc3)o1)C(C)(C)CCC2(C)C` [Compound 347], the remaining activity at 10 µM was found to be 2%.

Consider `Cc1cc2c(cc1Cc1ccc(C(=O)Nc3ccccc3C(=O)N3CCN(C)CC3)o1)C(C)(C)CCC2(C)C` [Compound 348], for which the remaining activity at 10 µM is 49%.

`Cc1cc2c(cc1Cc1ccc(C(=O)Nc3ccccc3C(=O)NC3CC45CCN4CCC35)o1)C(C)(C)CCC2(C)C` (centres unmarked) [Compound 349]: the remaining activity at 10 µM turned out to be 47%.

Turning to `CNc1ccccc1NC(=O)c1ccc(Cc2cc3c(cc2C)C(C)(C)CCC3(C)C)o1` [Compound 350], the remaining activity at 10 µM was found to be 10%.

`Cc1cc2c(cc1Cc1ccc(C(=O)Nc3cccc(C#N)c3)o1)C(C)(C)CCC2(C)C` [Compound 351]: the remaining activity at 10 µM is 24%.

As for `Cc1cc2c(cc1Cc1ccc(C(=O)Nc3ccccc3C(=O)NCc3cccnc3)o1)C(C)(C)CCC2(C)C` [Compound 352], the remaining activity at 10 µM amounted to 51%.

As to `Cc1cc2c(cc1Cc1ccc(C(=O)Nc3nc(Cl)c4nc[nH]c4n3)o1)C(C)(C)CCC2(C)C` [Compound 353], the remaining activity at 10 µM is -4%.

As to `Cc1cc2c(cc1Cc1ccc(C(=O)Nc3ccc4[nH]c(O)nc4c3)o1)C(C)(C)CCC2(C)C` [Compound 355], the remaining activity at 10 µM was 20%.

On to `Cc1cc2c(cc1Cc1ccc(C(=O)Nc3nccc4ccccc34)o1)C(C)(C)CCC2(C)C` [Compound 356], for which the remaining activity at 10 µM stood at 17%.

Turning to `COc1ccccc1NC(=O)c1ccc(Cc2cc3c(cc2C)C(C)(C)CCC3(C)C)o1` [Compound 358], the remaining activity at 10 µM stood at 9%.

Consider `Cc1cc2c(cc1Cc1ccc(C(=O)Nc3cccc(OC(F)(F)F)c3)o1)C(C)(C)CCC2(C)C` [Compound 359], for which the remaining activity at 10 µM is 55%.

In the case of `Cc1nc2cc(NC(=O)c3ccc(Cc4cc5c(cc4C)C(C)(C)CCC5(C)C)o3)ccc2s1` [Compound 360], the remaining activity at 10 µM came out at 4%.

Take `COC(=O)c1ccc(OC)c(NC(=O)c2ccc(Cc3cc4c(cc3C)C(C)(C)CCC4(C)C)o2)c1` [Compound 361]: the remaining activity at 10 µM came to 4%.

Consider `Cc1cc2c(cc1Cc1ccc(C(=O)Nc3ccccc3C)o1)C(C)(C)CCC2(C)C` [Compound 362], for which the remaining activity at 10 µM worked out at 1%.

As to `CSc1ccccc1NC(=O)c1ccc(Cc2cc3c(cc2C)C(C)(C)CCC3(C)C)o1` [Compound 363], the remaining activity at 10 µM was determined as 14%.

As to `Cc1cccc(NC(=O)c2ccc(Cc3cc4c(cc3C)C(C)(C)CCC4(C)C)o2)c1` [Compound 364], the remaining activity at 10 µM was found to be 21%.

The same test, now with this note: read-out: hGnRH IC50.
By IC50 is commonly meant the concentration that gives 50% inhibition. Turning to `COc1cccc(OC)c1NC(=O)c1ccc(Cc2cc(C(C)C)c(O)cc2C)o1` [Compound 303], the IC50 was 320 nM.

With `COc1cc(OC)c(NC(=O)c2ccc(Cc3cc(C4CCCCC4)ccc3C)o2)c(OC)c1` [Compound 304], the concentration for half-maximal inhibition (IC50) came out at 303 nM.

The same test, now with this note: substrate remaining; 10 uM compound; closer to zero = closer to 100% inhibition.
`Cc1cc2c(cc1Cc1ccc(C(=O)Nc3ccc4[nH]ccc4c3)o1)C(C)(C)CCC2(C)C` [Compound 354]: the “S%R 10 uM hGnRHR” value is given as −5%.

On to `Cc1cc2c(cc1Cc1ccc(C(=O)Nc3ccc4[nH]ccc4c3)o1)C(C)(C)CCC2(C)C` [Compound 357], for which the “S%R 10 uM hGnRHR” value was −2%.
